Tested on: CD4+ clone 436/B6.37 (B6/37)
Test: IFN-γ/TNF production by CD4+ clone B6/37 (clone 37) stimulated with peptide- or protein-pulsed EBV-B cells
Format: cell-based, human
Summary of the method: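 CD4+ clone (2,500 cells) cocultured 18-20 h with 5,000 EBV-B cells pre-pulsed 2 h at 37 °C with MAGE-A3 peptides or 18-20 h with 20 μg/ml His-MAGE-A3 protein; ovalbumin as negative control. IFN-γ measured by ELISA, TNF by WEHI 164 clone 13 cytotoxicity (MTT); triplicates.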

What does the source list for “FLLLKYRAREPVTKAE (listed as Homo sapiens) [MAGE-A3119-134]”?
activation of clone B6/37 by 16 amino acid peptides: unable to activate; stimulation of clone 37 (same conditions (peptide 10 ng/ml; HLA-DR13 EBV-B cells)): not stimulated
